According to ChEMBL document CHEMBL5036318, “Synthesis and Biological Evaluation of Phosphoester and Phosphorothioate Prodrugs of STING Agonist 3',3'-c-Di(2'F,2'dAMP)” (J Med Chem, 2021):

Assays:
[1] = Induction of INF-alpha production in healthy human PBMC incubated for 16 hrs; type: functional, tissue-based
[2] = Induction of INF-gamma production in healthy human PBMC incubated for 16 hrs; type: functional, tissue-based
[3] = Induction of TNF-alpha production in healthy human PBMC incubated for 16 hrs; type: functional, tissue-based
cells = details: Homo sapiens, HEK-293T
Description: Activation of human STING REF mutant expressed in digitonin treated HEK293T cells co-expressing IRF3-activated ISRE assessed as IRF3 reporter activation by luciferase reporter gene assay

[4] = target: T1, Stimulator of interferon genes protein (Homo sapiens, UniProt Q86WV6); assay: Activation of wild-type human STING expressed in HEK293T cells co-expressing IRF3-activated ISRE assessed as IRF3 reporter activation measured after 30 mins by luciferase reporter gene assay; type: cell-based
T1 sequence (Q86WV6 whole entry): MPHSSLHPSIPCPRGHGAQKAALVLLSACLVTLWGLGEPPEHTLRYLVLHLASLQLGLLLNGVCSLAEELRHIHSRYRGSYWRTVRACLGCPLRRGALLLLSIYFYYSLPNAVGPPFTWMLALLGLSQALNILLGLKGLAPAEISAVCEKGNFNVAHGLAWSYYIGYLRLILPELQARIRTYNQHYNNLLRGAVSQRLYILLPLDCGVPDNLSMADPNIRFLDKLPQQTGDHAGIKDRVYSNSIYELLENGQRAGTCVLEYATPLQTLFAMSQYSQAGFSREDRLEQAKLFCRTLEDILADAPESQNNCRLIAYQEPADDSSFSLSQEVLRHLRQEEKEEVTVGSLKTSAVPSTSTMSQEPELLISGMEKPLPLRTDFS

[5] = target: T1, Stimulator of interferon genes protein; assay: Activation of wild-type human STING expressed in HEK293T cells co-expressing IRF3-activated ISRE assessed as IRF3 reporter activation measured after 7 hrs by luciferase reporter gene assay; type: cell-based
[6] = target: T1, Stimulator of interferon genes protein; assay: Activation of wild-type human STING expressed in digitonin treated human THP1-Dual cells co-expressing IRF3-activated ISRE assessed as IRF3 reporter activation measured after 30 mins by luciferase reporter gene assay; type: cell-based
[7] = target: T1, Stimulator of interferon genes protein; assay: Activation of wild-type human STING expressed in human THP1-Dual cells co-expressing IRF3-activated ISRE assessed as IRF3 reporter activation measured after 7 hrs by luciferase reporter gene assay; type: cell-based
[8] = Potency index, ratio of test compound EC50 to prodrug EC50 for induction of INF-alpha production in healthy human PBMC incubated for 16 hrs; type: functional
[9] = Potency index, ratio of test compound EC50 to prodrug EC50 for induction of INF-gamma production in healthy human PBMC incubated for 16 hrs; type: functional
[10] = Potency index, ratio of test compound EC50 to prodrug EC50 for induction of TNF-alpha production in healthy human PBMC incubated for 16 hrs; type: functional
[11] = target: T1, Stimulator of interferon genes protein; assay: Potency index, ratio of test compound EC50 to prodrug EC50 for activation of wild-type human STING expressed in human THP1-Dual cells co-expressing IRF3-activated ISRE assessed as IRF3 reporter activation measured after 30 mins by luciferase reporter gene assay; type: cell-based
[12] = target: T1, Stimulator of interferon genes protein; assay: Potency index, ratio of test compound EC50 to prodrug EC50 for activation of wild-type human STING expressed in HEK293T cells co-expressing IRF3-activated ISRE assessed as IRF3 reporter activation measured after 30 mins by luciferase reporter gene assay; type: cell-based
[13] = target: T1, Stimulator of interferon genes protein; assay: Potency index, ratio of test compound EC50 to prodrug EC50 for activation of wild-type human STING expressed in HEK293T cells co-expressing IRF3-activated ISRE assessed as IRF3 reporter activation measured after 7 hrs by luciferase reporter gene assay; type: cell-based
[14] = target: T1, Stimulator of interferon genes protein; assay: Potency index, ratio of test compound EC50 to prodrug EC50 for activation of wild-type human STING expressed in digitonin treated THP1-Dual cells co-expressing IRF3-activated ISRE assessed as IRF3 reporter activation measured after 7 hrs by luciferase reporter gene assay; type: cell-based
[15] = Activation of human STING Q mutant expressed in digitonin treated HEK293T cells co-expressing IRF3-activated ISRE assessed as IRF3 reporter activation by luciferase reporter gene assay; type: cell-based; details: HEK-293T

Row | EC50 (cells) | EC50 [4] | EC50 [5] | EC50 [6] | EC50 [7] | Structure (SMILES) | EC50 [1] | EC50 [2] | EC50 [3] | Ratio EC50 [8] | Ratio EC50 [9] | Ratio EC50 [10] | Ratio EC50 [11] | Ratio EC50 [12] | Ratio EC50 [13] | Ratio EC50 [14] | EC50 [15]
1 | 4260 nM | – | – | – | – | Nc1nc2c(ncn2[C@@H]2O[C@@H]3COP(=O)(O)O[C@H]4[C@@H](O)[C@H](n5cnc6c(N)ncnc65)O[C@@H]4COP(=O)(O)O[C@H]3[C@H]2O)c(=O)[nH]1 | 26700 nM | 15100 nM | > 300000 nM | – | – | – | – | – | – | – | –
2 | – | 230 nM | 30 nM | 350 nM | 50 nM | CCC(CC)C(=O)OCO[P@@]1(=O)OC[C@H]2O[C@@H](n3cnc4c(N)ncnc43)[C@H](F)[C@@H]2O[P@](=O)(OCOC(=O)C(CC)CC)OC[C@H]2O[C@@H](n3cnc4c(N)ncnc43)[C@H](F)[C@@H]2O1 | 260 nM | 30 nM | 70 nM | 195 | 285 | 432 | – | – | – | – | –
3 | – | 3090 nM | 400 nM | 1740 nM | 270 nM | Nc1ncnc2c1ncn2[C@@H]1O[C@@H]2CO[P@@](=O)(OCOC(=O)c3ccccc3)O[C@H]3[C@@H](F)[C@H](n4cnc5c(N)ncnc54)O[C@@H]3COP(=O)(O)O[C@H]2[C@H]1F | – | – | – | – | – | – | 11 | 31 | 20 | 4 | –
4 | – | 1930 nM | 320 nM | 1710 nM | 200 nM | CC(C)OC(=O)OCO[P@]1(=O)OC[C@H]2O[C@@H](n3cnc4c(N)ncnc43)[C@H](F)[C@@H]2OP(=O)(O)OC[C@H]2O[C@@H](n3cnc4c(N)ncnc43)[C@H](F)[C@@H]2O1 | – | – | – | – | – | – | 11 | 50 | 25 | 5 | –
5 | – | 1360 nM | 450 nM | 970 nM | 150 nM | CCC(CC)C(=O)OCO[P@]1(=O)OC[C@H]2O[C@@H](n3cnc4c(N)ncnc43)[C@H](F)[C@@H]2OP(=O)(O)OC[C@H]2O[C@@H](n3cnc4c(N)ncnc43)[C@H](F)[C@@H]2O1 | – | – | – | – | – | – | 20 | 71 | 18 | 7 | –
6 | 8410 nM | – | – | – | – | Nc1nc2c(ncn2[C@@H]2O[C@@H]3COP(=O)(O)O[C@H]4[C@@H](O)[C@H](n5cnc6c(=O)[nH]c(N)nc65)O[C@@H]4COP(=O)(O)O[C@H]3[C@H]2O)c(=O)[nH]1 | – | – | – | – | – | – | – | – | – | – | > 45000 nM
7 | – | 70 nM | 10 nM | 110 nM | 20 nM | CCC(CC)C(=O)OCO[P@]1(=O)OC[C@H]2O[C@@H](n3cnc4c(N)ncnc43)[C@H](F)[C@@H]2O[P@](=O)(OCOC(=O)C(CC)CC)OC[C@H]2O[C@@H](n3cnc4c(N)ncnc43)[C@H](F)[C@@H]2O1 | 50 nM | 4 nM | 20 nM | 985 | 2135 | 1485 | – | – | – | – | –
8 | – | – | 40 nM | 330 nM | 40 nM | Nc1ncnc2c1ncn2[C@@H]1O[C@@H]2CO[P@@](=O)(OCOC(=O)c3ccccc3)O[C@H]3[C@@H](F)[C@H](n4cnc5c(N)ncnc54)O[C@@H]3CO[P@](=O)(OCOC(=O)c3ccccc3)O[C@H]2[C@H]1F | 700 nM | 30 nM | 230 nM | – | – | – | – | – | – | – | –
9 | – | 940 nM | 170 nM | 970 nM | 110 nM | CC(C)OC(=O)OCO[P@@]1(=O)OC[C@H]2O[C@@H](n3cnc4c(N)ncnc43)[C@H](F)[C@@H]2O[P@](=O)(OCOC(=O)OC(C)C)OC[C@H]2O[C@@H](n3cnc4c(N)ncnc43)[C@H](F)[C@@H]2O1 | 1290 nM | 1470 nM | 710 nM | 40 | 6 | 45 | – | – | – | – | –
10 | – | 310 nM | 30 nM | 380 nM | 30 nM | CC(C)OC(=O)OCO[P@]1(=O)OC[C@H]2O[C@@H](n3cnc4c(N)ncnc43)[C@H](F)[C@@H]2O[P@](=O)(OCOC(=O)OC(C)C)OC[C@H]2O[C@@H](n3cnc4c(N)ncnc43)[C@H](F)[C@@H]2O1 | 360 nM | 160 nM | 350 nM | 414 | 51 | 90 | – | – | – | – | –

Row | Structure (SMILES) | EC50 (cells) | EC50 [4] | EC50 [5] | EC50 [6] | EC50 [7] | EC50 [1] | EC50 [2] | EC50 [3] | Ratio EC50 [8] | Ratio EC50 [9] | Ratio EC50 [10] | Ratio EC50 [11] | Ratio EC50 [12] | Ratio EC50 [13] | Ratio EC50 [14] | EC50 [15]
11 | Nc1nc2c(ncn2[C@@H]2O[C@@H]3COP(=O)(O)O[C@@H]4[C@H](O)[C@@H](COP(=O)(O)O[C@@H]2[C@@H]3O)O[C@H]4n2cnc3c(N)ncnc32)c(=O)[nH]1 | – | 85100 nM | 11700 nM | 28500 nM | 2630 nM | 17300 nM | 11500 nM | 72600 nM | – | – | – | – | – | – | – | 170 nM
12 | CC(C)(C)C(=O)OCO[P@]1(=O)OC[C@H]2O[C@@H](n3cnc4c(N)ncnc43)[C@H](F)[C@@H]2OP(=O)(O)OC[C@H]2O[C@@H](n3cnc4c(N)ncnc43)[C@H](F)[C@@H]2O1 | – | 460 nM | 130 nM | 500 nM | 180 nM | – | – | – | – | – | – | 38 | 212 | 61 | 6 | –
13 | CC(C)(C)C(=O)OCS[P@@]1(=O)OC[C@H]2O[C@@H](n3cnc4c(N)ncnc43)[C@H](F)[C@@H]2O[P@](=O)(SCOC(=O)C(C)(C)C)OC[C@H]2O[C@@H](n3cnc4c(N)ncnc43)[C@H](F)[C@@H]2O1 | – | 40 nM | 40 nM | 30 nM | 20 nM | 70 nM | 50 nM | 100 nM | 260 | 222 | 82 | 94 | 14 | 3 | 18 | –
14 | CC(C)(C)C(=O)OCS[P@@]1(=O)OC[C@H]2O[C@@H](n3cnc4c(N)ncnc43)[C@H](F)[C@@H]2O[P@@](=O)(SCOC(=O)C(C)(C)C)OC[C@H]2O[C@@H](n3cnc4c(N)ncnc43)[C@H](F)[C@@H]2O1 | – | 40 nM | 70 nM | 80 nM | 50 nM | 720 nM | 1190 nM | 180 nM | 41 | 8 | 146 | 152 | 62 | 23 | 159 | –
15 | CC(C)(C)C(=O)OCS[P@]1(=O)OC[C@H]2O[C@@H](n3cnc4c(N)ncnc43)[C@H](F)[C@@H]2O[P@](=O)(SCOC(=O)C(C)(C)C)OC[C@H]2O[C@@H](n3cnc4c(N)ncnc43)[C@H](F)[C@@H]2O1 | – | 180 nM | 120 nM | 60 nM | 20 nM | 130 nM | 90 nM | 100 nM | 301 | 68 | 93 | 55 | 38 | 10 | 15 | –
